# Assay results from patent US6683085B2, “Salt form and polymorphs” (Pfizer Inc., priority 2000, dated 2004).
# Counter-ions that a name gives are not always drawn.
# Legend:
# [1] = Moisture sorption at 30° C. and 45% RH; assay type: physicochemical
# [2] = Solubility of the mesylate salt and free base forms; assay type: physicochemical
# Hygroscopicity at 90% RH = assay type: physicochemical; conditions: for Hygroscopity % (w/w) at 90% RH: Table 4, polymorphic forms of the free base
# [3] = Water content of the hydrated form of the free base; assay type: physicochemical
# Description: The water content of the hydrated form of the free base (Form D) at ambient conditions is commonly of the order of 9 to 10% (w/w). This is equivalent to 2.5 to 2.8 moles of water per mole of the free base. […] The first mole was lost below 5% RH the second retained down to 1% RH see FIG. 11. It is likely that extended storage of the hydrated form below about 18% RH would result in dehydration. Furthermore, removal of the crystalline water results in the loss of the crystal lattice, the product being predominantly amorphous. This highlights a potential problem in using the conventional hydrated form in manufacturing a pharmaceutical formulation. Dehydration was observed on thermal analysis as a broad double endotherm at 97/113° C. (See FIG. 8)
# [4] = test system: male and female Sprague-Dawley rats; experiment: Daily oral administration to rats for 1 month; assay type: in vivo; conditions: rat, 30 mg/kg for 1 month
# [5] = Stability over a wide range of conditions; assay type: physicochemical; conditions: e.g. high light intensity
smiles,measurement,setting,value
"COc1cc2nc(N3CCc4c(cccc4NS(C)(=O)=O)C3)nc(N)c2c(-c2ccccn2)c1OC [Form A, 4-Amino-6,7-dimethoxy-2-(5-methanesulfonamido-1,2,3,4-tetrahydroisoquinol-2-yl)-5-(2-pyridyl)quinazoline]",Moisture sorption (% w/w) at 30° C. and 45% RH,[1]; listed as Free base (mpt 198° C.),1.39 % w/w
same,Solubility,"[2]; 0.9% sodium chloride at 22° C., listed as Free base (mpt 198° C.)",36 micrograms/ml
same,Solubility,"[2]; Water at 22° C., listed as Free base (mpt 198° C.)",420 micrograms/ml
same,Hygroscopity % (w/w) at 90% RH,Hygroscopicity at 90% RH; 90% RH,2.2 % (w/w)
"COc1cc2nc(N3CCc4c(cccc4NS(C)(=O)=O)C3)nc(N)c2c(-c2ccccn2)c1OC [Form B, 4-Amino-6,7-dimethoxy-2-(5-methanesulfonamido-1,2,3,4-tetrahydroisoquinol-2-yl)-5-(2-pyridyl)quinazoline]",Hygroscopity % (w/w) at 90% RH,Hygroscopicity at 90% RH; 90% RH,0.27 % (w/w)
"COc1cc2nc(N3CCc4c(cccc4NS(C)(=O)=O)C3)nc(N)c2c(-c2ccccn2)c1OC [Form D, 4-Amino-6,7-dimethoxy-2-(5-methanesulfonamido-1,2,3,4-tetrahydroisoquinol-2-yl)-5-(2-pyridyl)quinazoline, reference compound]",Moisture sorption (% w/w) at 30° C. and 45% RH,[1]; listed as Hydrated form of free base,11.24 % w/w
same,Solubility,"[2]; 0.9% sodium chloride at 22° C., listed as Hydrated form of free base",4 micrograms/ml
same,Solubility,"[2]; Water at 22° C., listed as Hydrated form of free base",12 micrograms/ml
same,Hygroscopity % (w/w) at 90% RH,Hygroscopicity at 90% RH; 90% RH,12.8 % (w/w)
same,Water content,[3]; 90% RH,12.8 % (w/w)
same,"Water content, moles of water",[3]; 90% RH,3.6 moles of water
same,Water content,[3]; ambient conditions,9 to 10 % (w/w)
same,"Water content, moles of water per mole of the free base",[3]; ambient conditions,2.5 to 2.8 moles of water per mole of the free base
"COc1cc2nc(N3CCc4c(cccc4NS(C)(=O)=O)C3)nc(N)c2c(-c2ccccn2)c1OC [Form E, 4-Amino-6,7-dimethoxy-2-(5-methanesulfonamido-1,2,3,4-tetrahydroisoquinol-2-yl)-5-(2-pyridyl)quinazoline]",Hygroscopity % (w/w) at 90% RH,Hygroscopicity at 90% RH; 90% RH,0.045 % (w/w)
"COc1cc2nc(N3CCc4c(cccc4NS(C)(=O)=O)C3)nc(N)c2c(-c2ccccn2)c1OC [Mesylate salt, 4-amino-6,7-dimethoxy-2-(5-methanesulfonamido-1,2,3,4-tetrahydroisoquinol-2-yl)-5-(2-pyridyl)quinazoline mesylate]",Adverse effects,[4],no evidence of adverse effects
same,Changes linked to the pharmacological activity,[4],induced changes linked to the pharmacological activity of the compound
same,Moisture sorption (% w/w) at 30° C. and 45% RH,"[1]; listed as Mesylate salt (mpt 279° C.), mesylate",0.56 % w/w
same,Stability,[5],good stability
same,Solubility,"[2]; 0.9% sodium chloride at 22° C., mesylate",120 micrograms/ml
same,Solubility,"[2]; Water at 22° C., mesylate",880 micrograms/ml
same,Hygroscopicity % (w/w) at 90% RH,"Hygroscopicity at 90% RH; 90% RH, Table 1, mesylate salt",1.1 % (w/w)
same,Hygroscopicity compared with another form,"Hygroscopicity at 90% RH; over a wide range of relative humidity, comparison in words",substantially lower than the free base
